Measured values: US12577231B2, “Androgen receptor PROTACS” (GlaxoSmithKline Intellectual Property Development Limited, priority 2023, dated 2026)
Numbering of substitutions follows the chain as printed.

Experiments:
[1] = Systemic exposure following oral administration in the rat; settings: for AUC0-t: 72 hours sampling; for AUC0-t / Cmax / Dose Normalised AUC0-t / Tmax: mean±SD (n=3); for *Estimated Bioavailability: dose normalised AUC0-t against an IV dose of 0.5 mg/kg
Experimental: Systemic exposure of various forms of N-((1r,3r)-3-(4-cyano-3-methoxyphenoxy)-2,2,4,4-tetramethylcyclobutyl)-4-(4-((4-(4-(2,4-dioxotetrahydropyrimidin-1(2H)-yl)-1H-pyrazolo[4,3-c]pyridin-1-yl)piperidin-1-yl)methyl)piperidin-1-yl)-3-fluorobenzamide were assessed following oral administration of 30 mg/kg of a suspension formulation (1% methylcellulose (aq)) or following oral administration of 35 mg/kg of a suspension formulation (100% PEG400) in the male Wistar Han rat. […] The sampling period was 72 hours, and the data is reported in the attached table as mean±SD (n=3).

[2] = biological target: T1, Androgen Receptor, LNCaP (AR T878A) (Homo sapiens, UniProt P10275, T878A); test: Androgen Receptor Degradation-Imaging Assay, LNCaP cell line; format: cell-based; settings: 16 hours treatment, maximum observed degradation
T1 construct: endogenous in cells; host or cells: LNCaP
T1 sequence (P10275 1-920 T878A): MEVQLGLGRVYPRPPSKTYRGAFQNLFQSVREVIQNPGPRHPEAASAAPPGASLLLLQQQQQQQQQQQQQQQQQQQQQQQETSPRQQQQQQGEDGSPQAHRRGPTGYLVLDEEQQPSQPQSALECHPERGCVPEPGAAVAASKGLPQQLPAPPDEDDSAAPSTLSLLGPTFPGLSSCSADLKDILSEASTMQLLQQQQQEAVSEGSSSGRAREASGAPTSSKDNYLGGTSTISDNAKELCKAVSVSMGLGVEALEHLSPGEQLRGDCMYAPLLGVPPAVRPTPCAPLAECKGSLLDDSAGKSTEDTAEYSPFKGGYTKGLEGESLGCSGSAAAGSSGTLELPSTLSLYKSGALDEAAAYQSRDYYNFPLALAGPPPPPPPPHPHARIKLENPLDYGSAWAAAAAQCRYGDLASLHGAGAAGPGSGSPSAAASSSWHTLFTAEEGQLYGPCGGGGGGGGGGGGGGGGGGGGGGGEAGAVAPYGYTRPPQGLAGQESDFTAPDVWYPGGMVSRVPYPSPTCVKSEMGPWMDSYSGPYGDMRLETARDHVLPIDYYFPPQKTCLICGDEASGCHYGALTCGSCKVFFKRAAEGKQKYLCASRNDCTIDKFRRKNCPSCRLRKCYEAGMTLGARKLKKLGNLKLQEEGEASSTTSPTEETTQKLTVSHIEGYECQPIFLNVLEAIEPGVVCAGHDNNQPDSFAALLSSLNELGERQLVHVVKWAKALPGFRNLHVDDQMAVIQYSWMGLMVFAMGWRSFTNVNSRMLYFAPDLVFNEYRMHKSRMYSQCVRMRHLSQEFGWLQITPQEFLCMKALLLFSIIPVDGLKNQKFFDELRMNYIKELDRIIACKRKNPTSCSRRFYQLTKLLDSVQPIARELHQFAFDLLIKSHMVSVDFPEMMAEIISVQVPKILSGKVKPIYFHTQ
Experimental: (§1) Degradation of Androgen Receptor (AR) protein in human prostate cancer cell lines (MDA-PCa-2b (AR T878A/L702H), LNCaP (AR T878A), VCaP (AR wild type and amplified) 22RV1 (AR H875Y) and PC3 (AR negative control)) treated with AR PROTACs was quantified using immunofluorescence. Prostate cancer cells were plated (MDA-PCa-2b, and VCaP 16,000 cells/well; LNCaP and 22RV1 32,000 cells/well, and PC3 8,000 cells/well) in an optical bottom 96-well cell culture plate and allowed to attach overnight. The prostate cancer cell lines were treated for 16 hours with a 10-point 3-fold dilution series (dose range=0.02 nM to 333 nM). PC3 is included as an AR negative control and not treated with compound. Cells are fixed and permeabilized with 4% formaldehyde, blocked with 10% goat serum in immunofluorescence (IF) buffer (130 mM NaCl, 7 mM Na2HPO4, 3.5 mM NaH2PO4, 7.7 mM NaN3, 0.1% BSA, 0.2% Triton X, 0.05% Tween 20) prior to overnight incubation with rabbit antibody specific for C terminus of AR (commercially available from RevMaB Biosciences). Following washes with IF buffer, cells were incubated with fluorescent secondary antibody (Goat anti-rabbit Alexa 647; commercially available from Invitrogen) and Hoechst nuclear stain (commercially available from Themo Scientific) prior to quantification of nuclear AR levels via Opera Phenix high-content fluorescent imager using a 40× water objective. Image analysis was performed with Harmony software.
(§2) The averaged nuclear Alexa 647 median fluorescence intensity (MFI) of PC3 cells is subtracted from the nuclear Alexa 647 MFI of PROTAC treated and DMSO control treated cells. % AR remaining is calculated for PROTAC treatments as a percent of the DMSO control (MFI PROTAC treated/MFI DMSO control treated)*100). DC50 and the Dmax values, were obtained from these normalised values fitted with a 4-parameter sigmoidal response curve (Xlfit software). The DC50 is the interpolated concentration of PROTAC corresponding to 50% of the protein being degraded, and the Dmax parameter is the maximum experimentally observed degradation.

[3] = biological target: T2, Androgen Receptor, VCaP (AR wild type and amplified) (Homo sapiens, UniProt P10275); test: Androgen Receptor Degradation-Imaging Assay, VCaP cell line; format: cell-based; settings: 16 hours treatment, maximum observed degradation
T2 construct: endogenous in cells; host or cells: VCaP
T2 sequence (P10275 1-920): T1 sequence (P10275 1-920 T878A) with A878T
Experimental: as §1, §2

[4] = biological target: T3, Androgen Receptor, MDA-PCa-2b (AR T878A/L702H) (Homo sapiens, UniProt P10275, L702H/T878A); test: Androgen Receptor Degradation-Imaging Assay, MDA-PCa-2b cell line; format: cell-based; settings: 16 hours treatment, maximum observed degradation
T3 construct: host or cells: MDA-PCa-2b
T3 sequence (P10275 1-920 L702H/T878A): T1 sequence (P10275 1-920 T878A) with L702H
Experimental: as §1, §2

[5] = 30 mg/kg in 1% methylcellulose (aq.), male Wistar Han rat, 30 mg/kg
[6] = 35 mg/kg in 100% PEG400, male Wistar Han rat, 35 mg/kg

AUC0-t [1, 5]	Cmax [1, 5]	Dose Normalised AUC0-t [1, 5]	Tmax [1, 5]	*Estimated Bioavailability ([1]; 30 mg/kg in 1% methylcellulose (aq.), rat)	AUC0-t [1, 6]	Cmax [1, 6]	Dose Normalised AUC0-t [1, 6]	Tmax [1, 6]	*Estimated Bioavailability ([1]; 35 mg/kg in 100% PEG400, rat)	Dmax [2]	Dmax [3]	Dmax [4]	SMILES
4380 ± 1450 ng·h/mL	185 ± 76 ng/mL	148 ± 49 (ng · h/mL)/(mg/kg	7.3 ± 1.2 h	16%	10700 ± 3370 ng·h/mL	420 ± 123 ng/mL	309 ± 98 (ng · h/mL)/(mg/kg	9.3 ± 2.3 h	33%				COc1cc(O[C@H]2C(C)(C)[C@H](NC(=O)c3ccc(N4CCC(CN5CCC(n6ncc7c(N8CCC(=O)NC8=O)nccc76)CC5)CC4)c(F)c3)C2(C)C)ccc1C#N [Crystalline API, N-((1r,3r)-3-(4-cyano-3-methoxyphenoxy)-2,2,4,4-tetramethylcyclobutyl)-4-(4-((4-(4-(2,4-dioxotetrahydropyrimidin-1(2H)-yl)-1H-pyrazolo[4,3-c]pyridin-1-yl)piperidin-1-yl)methyl)piperidin-1-yl)-3-fluorobenzamide]
										≥ 80%	≥ 80%	≥ 80%	COc1cc(O[C@H]2C(C)(C)[C@H](NC(=O)c3ccc(N4CCC(CN5CCC(n6ccc7c(N8CCC(=O)NC8=O)nccc76)CC5)CC4)c(F)c3)C2(C)C)ccc1C#N [Example 17, N-((1r,3r)-3-(4-Cyano-3-methoxyphenoxy)-2,2,4,4-tetramethylcyclobutyl)-4-(4-((4-(4-(2,4-dioxotetrahydropyrimidin-1(2H)-yl)-1H-pyrrolo[3,2-c]pyridin-1-yl)piperidin-1-yl)methyl)piperidin-1-yl)-3-fluorobenzamide]
